In paper PMC6199744, “Development of Chemical Proteomics for the Folateome and Analysis of the Kinetoplastid Folateome” (ACS Infectious Diseases, 2018):
Like-named read-outs stand apart in the source and are kept apart here.

Columns and labels:
Format in all cases: binding
[1] = target: T1, HeLa cell extract proteins (Homo sapiens, UniProt Q9Y5V3); conditions: captured protein MAGED1; HeLa
T1 construct: endogenous in cells; host or cells: HeLa cell extract
T1 sequence (Q9Y5V3 1-778): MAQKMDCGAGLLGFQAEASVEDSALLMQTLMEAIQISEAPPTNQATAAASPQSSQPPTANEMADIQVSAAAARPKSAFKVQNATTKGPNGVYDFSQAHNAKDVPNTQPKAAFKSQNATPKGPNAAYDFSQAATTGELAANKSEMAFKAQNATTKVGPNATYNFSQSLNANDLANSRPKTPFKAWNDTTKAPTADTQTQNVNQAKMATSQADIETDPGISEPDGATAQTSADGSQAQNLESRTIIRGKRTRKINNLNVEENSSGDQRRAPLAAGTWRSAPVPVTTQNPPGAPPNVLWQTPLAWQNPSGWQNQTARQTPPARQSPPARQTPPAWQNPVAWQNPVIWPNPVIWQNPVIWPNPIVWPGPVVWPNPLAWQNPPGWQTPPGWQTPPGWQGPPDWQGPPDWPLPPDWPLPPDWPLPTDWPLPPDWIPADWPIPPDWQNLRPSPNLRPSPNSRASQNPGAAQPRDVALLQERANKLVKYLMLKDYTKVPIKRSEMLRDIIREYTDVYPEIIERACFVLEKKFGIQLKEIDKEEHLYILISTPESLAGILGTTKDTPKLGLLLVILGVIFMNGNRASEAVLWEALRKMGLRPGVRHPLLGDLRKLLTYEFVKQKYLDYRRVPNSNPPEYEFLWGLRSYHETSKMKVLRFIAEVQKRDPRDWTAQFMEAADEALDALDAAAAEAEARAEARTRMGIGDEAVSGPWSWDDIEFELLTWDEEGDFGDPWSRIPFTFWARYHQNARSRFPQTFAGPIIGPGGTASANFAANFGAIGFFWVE

[2] = target: T2, HeLa cell extract proteins (Homo sapiens, UniProt P35237); conditions: protein SERPINB6; HeLa
T2 construct: endogenous in cells; host or cells: HeLa cell extract
T2 sequence (P35237 1-376): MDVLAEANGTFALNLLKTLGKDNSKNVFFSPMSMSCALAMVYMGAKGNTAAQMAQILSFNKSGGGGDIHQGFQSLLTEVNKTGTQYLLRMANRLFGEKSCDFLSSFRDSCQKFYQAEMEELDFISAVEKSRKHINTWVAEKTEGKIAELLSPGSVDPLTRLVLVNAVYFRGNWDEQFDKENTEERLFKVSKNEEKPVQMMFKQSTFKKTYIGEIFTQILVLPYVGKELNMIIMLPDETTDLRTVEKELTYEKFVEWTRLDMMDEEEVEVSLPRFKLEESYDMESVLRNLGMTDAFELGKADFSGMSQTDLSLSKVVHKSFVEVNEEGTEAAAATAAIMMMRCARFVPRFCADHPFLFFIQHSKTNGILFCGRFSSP

[3] = target: T3, HeLa cell extract proteins (Homo sapiens, UniProt Q6R327)
T3 construct: endogenous in cells; host or cells: HeLa cell extract
T3 sequence (Q6R327 whole entry): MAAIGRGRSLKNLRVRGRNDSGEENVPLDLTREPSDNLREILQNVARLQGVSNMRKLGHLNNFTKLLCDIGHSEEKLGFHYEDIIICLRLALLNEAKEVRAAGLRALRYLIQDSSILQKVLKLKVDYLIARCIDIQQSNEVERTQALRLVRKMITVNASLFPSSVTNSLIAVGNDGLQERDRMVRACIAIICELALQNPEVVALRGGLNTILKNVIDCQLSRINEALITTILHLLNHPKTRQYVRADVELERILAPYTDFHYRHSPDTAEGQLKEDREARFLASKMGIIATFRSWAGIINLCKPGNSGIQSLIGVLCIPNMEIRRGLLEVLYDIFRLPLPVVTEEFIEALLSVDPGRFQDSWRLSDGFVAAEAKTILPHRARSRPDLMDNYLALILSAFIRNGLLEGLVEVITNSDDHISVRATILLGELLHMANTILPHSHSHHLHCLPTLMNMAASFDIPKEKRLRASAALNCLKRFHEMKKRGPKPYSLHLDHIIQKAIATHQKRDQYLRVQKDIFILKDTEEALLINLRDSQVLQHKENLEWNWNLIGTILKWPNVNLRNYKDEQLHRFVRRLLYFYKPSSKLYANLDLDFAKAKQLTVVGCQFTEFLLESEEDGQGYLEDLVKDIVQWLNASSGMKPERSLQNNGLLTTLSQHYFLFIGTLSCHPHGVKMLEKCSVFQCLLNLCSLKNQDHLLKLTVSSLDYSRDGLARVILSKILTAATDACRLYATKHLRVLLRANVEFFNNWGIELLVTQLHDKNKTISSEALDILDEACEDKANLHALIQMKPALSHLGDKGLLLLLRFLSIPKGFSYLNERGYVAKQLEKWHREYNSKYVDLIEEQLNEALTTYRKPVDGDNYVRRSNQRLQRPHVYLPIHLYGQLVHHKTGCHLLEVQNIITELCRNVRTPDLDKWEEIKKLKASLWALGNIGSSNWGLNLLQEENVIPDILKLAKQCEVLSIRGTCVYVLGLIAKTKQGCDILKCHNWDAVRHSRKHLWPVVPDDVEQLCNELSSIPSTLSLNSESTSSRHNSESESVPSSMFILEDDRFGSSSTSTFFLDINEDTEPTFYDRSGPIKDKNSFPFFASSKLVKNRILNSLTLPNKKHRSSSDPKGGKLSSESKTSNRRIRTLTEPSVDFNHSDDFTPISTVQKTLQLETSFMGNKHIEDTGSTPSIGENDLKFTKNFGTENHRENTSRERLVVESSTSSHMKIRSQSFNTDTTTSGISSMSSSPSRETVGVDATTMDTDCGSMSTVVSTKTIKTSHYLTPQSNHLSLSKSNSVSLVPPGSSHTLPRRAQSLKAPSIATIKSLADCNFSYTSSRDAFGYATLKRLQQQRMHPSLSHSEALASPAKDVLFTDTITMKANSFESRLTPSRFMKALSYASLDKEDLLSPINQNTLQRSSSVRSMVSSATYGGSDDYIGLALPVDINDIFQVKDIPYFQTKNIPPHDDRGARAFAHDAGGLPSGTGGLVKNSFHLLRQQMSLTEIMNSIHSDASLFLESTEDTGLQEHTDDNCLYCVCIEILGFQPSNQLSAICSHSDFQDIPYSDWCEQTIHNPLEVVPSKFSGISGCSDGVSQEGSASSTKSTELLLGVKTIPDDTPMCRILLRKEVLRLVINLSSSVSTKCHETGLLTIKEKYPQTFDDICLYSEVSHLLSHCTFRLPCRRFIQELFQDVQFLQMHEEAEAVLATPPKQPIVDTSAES

[4] = target: T4, HeLa cell extract proteins (Homo sapiens, UniProt Q9UHD8)
T4 construct: endogenous in cells; host or cells: HeLa cell extract
T4 sequence (Q9UHD8 1-586): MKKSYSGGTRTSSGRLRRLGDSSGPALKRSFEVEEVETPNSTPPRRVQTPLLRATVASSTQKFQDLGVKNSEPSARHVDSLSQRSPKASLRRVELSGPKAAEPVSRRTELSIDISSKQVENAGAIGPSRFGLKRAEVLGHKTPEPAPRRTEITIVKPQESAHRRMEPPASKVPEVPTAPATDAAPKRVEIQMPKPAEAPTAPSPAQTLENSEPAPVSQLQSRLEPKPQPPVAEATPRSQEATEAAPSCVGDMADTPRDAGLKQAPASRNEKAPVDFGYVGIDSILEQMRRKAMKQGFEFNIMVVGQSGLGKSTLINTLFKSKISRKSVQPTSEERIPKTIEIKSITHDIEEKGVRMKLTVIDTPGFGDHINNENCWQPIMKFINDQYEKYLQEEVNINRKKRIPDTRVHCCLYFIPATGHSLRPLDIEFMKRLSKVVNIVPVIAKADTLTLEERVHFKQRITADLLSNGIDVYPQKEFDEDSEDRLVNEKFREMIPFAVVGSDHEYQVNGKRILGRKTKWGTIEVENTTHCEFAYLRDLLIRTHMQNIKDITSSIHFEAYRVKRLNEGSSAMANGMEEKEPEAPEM

[5] = target: T5, HeLa cell extract proteins (Homo sapiens, UniProt Q6PJG6)
T5 construct: endogenous in cells; host or cells: HeLa cell extract
T5 sequence (Q6PJG6 1-821): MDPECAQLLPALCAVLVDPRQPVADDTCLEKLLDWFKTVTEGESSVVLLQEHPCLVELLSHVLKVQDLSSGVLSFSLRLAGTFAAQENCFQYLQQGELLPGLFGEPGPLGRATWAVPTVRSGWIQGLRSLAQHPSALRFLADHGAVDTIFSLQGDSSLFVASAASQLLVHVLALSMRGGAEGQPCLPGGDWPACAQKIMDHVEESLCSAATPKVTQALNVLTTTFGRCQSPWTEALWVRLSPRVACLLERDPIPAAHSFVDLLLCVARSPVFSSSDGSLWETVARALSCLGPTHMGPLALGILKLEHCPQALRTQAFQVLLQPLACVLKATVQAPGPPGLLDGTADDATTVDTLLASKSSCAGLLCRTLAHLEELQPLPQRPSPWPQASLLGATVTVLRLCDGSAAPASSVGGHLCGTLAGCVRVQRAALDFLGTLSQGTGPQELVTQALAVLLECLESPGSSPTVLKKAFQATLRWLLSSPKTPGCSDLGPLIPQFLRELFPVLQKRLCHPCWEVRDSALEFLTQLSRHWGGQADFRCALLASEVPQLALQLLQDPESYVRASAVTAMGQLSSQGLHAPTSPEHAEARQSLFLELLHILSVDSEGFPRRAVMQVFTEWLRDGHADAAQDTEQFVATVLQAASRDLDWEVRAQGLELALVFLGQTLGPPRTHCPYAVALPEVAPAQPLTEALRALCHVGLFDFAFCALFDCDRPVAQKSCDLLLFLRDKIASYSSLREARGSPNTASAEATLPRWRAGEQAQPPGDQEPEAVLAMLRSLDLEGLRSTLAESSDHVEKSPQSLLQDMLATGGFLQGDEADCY

Structure (SMILES)	fold changes relative to vehicle control [1]	fold changes relative to vehicle control [2]	fold changes relative to vehicle control ([3]; HeLa, protein RICTOR)	fold changes relative to vehicle control ([4]; protein SEPT9, HeLa)	fold changes relative to vehicle control ([5]; HeLa, protein C7ORF27)	further results
Nc1nc2cccc(-c3ccccc3)c2n1Cc1ccc(Cl)c(Cl)c1 [compound 3]	0.88	0.92	–	–	–	–
Nc1nc2[nH]cc(CCc3ccc(C(=O)N[C@@H](CCC(=O)O)C(=O)O)cc3)c2c(=O)[nH]1 [PTX, pemetrexed]	–	–	–	–	–	fold changes relative to vehicle control [3]: 0.97; fold changes relative to vehicle control [4]: 0.96; fold changes relative to vehicle control [5]: 0.88
Nc1nc2c(c(=O)[nH]1)N(C=O)C(CNc1ccc(C(=O)N[C@@H](CCC(=O)O)C(=O)O)cc1)CN2 (stereo partly drawn) [LEU, leucovorin]	–	–	0.92	0.93	0.75	–
CCCCCCOc1cccc(Cc2cnc(N)nc2N)c1 [compound 2]	0.78	1.61	–	–	–	–
NCCOCCOCC(=O)Nc1nc2ncc(CNc3ccc(C(=O)NC(CCC(=O)O)C(=O)O)cc3)nc2c(=O)[nH]1 (stereo not drawn) [compound 6]	–	–	1.11	1	1.02	–
CCCCCCOc1ccc(Cc2cnc(N)nc2N)cc1 [compound 1]	0.98	1.14	–	–	–	–
NCCCNc1ccc(C(=O)NC(CCC(=O)O)C(=O)O)cc1 (stereo not drawn) [compound 7]	–	–	1.11	0.92	0.87	–
